PMC6264310, “Synthesis and Pharmacological Activity of Diterpenylnaphthoquinone Derivatives” (Molecules, 2011)

Assays:
[1] = test system: HCl-EtOH-induced gastric lesions; assay: HCl-EtOH-induced gastric lesion model in mice; type: in vivo
Experimental: 3.5. HCl-EtOH-Induced Ulcer Model in Mice
The gastroprotective activity of the compounds was assessed in the EtOH-HCl-induced gastric lesion model. Male Swiss albino mice weighing 30 ± 3 g were used. The animals were fed on certified Champion diet with free access to water under standard conditions of 12 h dark-light period, 50% relative humidity, and 22 °C room temperature. The mice were randomly distributed into groups of 7–14 animals each and fasted for 24 h with free access to water before the oral administration of test samples by gavage. The purity of the tested compounds was higher than 95% by NMR analysis. To keep the animal numbers to a minimum, dose-response studies were performed with lapachol at 5, 10 and 50 mg/kg to set the conditions for single-dose comparison of gastroprotective effect. The tested compounds, lansoprazole (20 mg/kg) or the vehicle (12% Tween 80, 10 mL/kg) were administered orally by gavage. After 50 min, all groups were orally treated with 0.2 mL of a solution containing 60% EtOH-0.3 M HCl for gastric lesion induction. Animals were sacrificed by cervical dislocation 1 h after the administration of EtOH-HCl, and the stomachs excised and inflated by injection of 5% formalin (1 mL). The ulcerated stomachs were fixed in 5% formalin for 30 min and opened along the greater curvature. The length (mm) of each lesion was measured, and the lesion index expressed as the sum of the length of all lesions. Based on previous studies on the parent diterpenes, comparison of the new compounds 1–12 was carried out at a single oral dose of 5 mg/kg. The protocols were approved by the Universidad de Talca Institutional Animal Care and Use Committee, which follows the recommendations of the Canadian Council on Animal Care. Tween 80 and lansoprazole (>98% purity by HPLC) were purchased from Sigma-Aldrich.
Results were expressed as the mean ± SEM. In all experiments, statistical differences between several treatments and their respective control were determined by one-way ANOVA with Student-Newman-Keuls post-hoc test. The level of significance was set at P < 0.05.

[2] = test system: AGS cells; assay: Basal cytotoxicity, neutral red uptake assay, AGS; type: cell-based; details: Homo sapiens, confluent cultures, 24 h, read-out: IC50 ± SEM, AGS
Experimental: (§1) 3.6. Cytotoxicity Assay
(§2) The human cell lines MRC-5 normal lung fibroblasts (ATCC CCL-171), AGS gastric adenocarcinoma cells (ATCC CRL-1739), and Hep G2 hepatocellular carcinoma cells (ATCC HB-8065) were obtained from the American Type Culture Collection (ATCC, Manassas, VA, USA). The cells were grown as monolayers in the following media: MRC-5 and Hep G2 in minimum essential Eagle’s medium (MEM), with Earle’s salts, 2.0 mM L-glutamine (Sigma Chemical Co.) and 2.2 g/L sodium bicarbonate (Sigma Chemical Co.), supplemented with 10% heat-inactivated fetal bovine serum (FBS), 100 IU/mL penicillin, and 100 µg/mL streptomycin in a humidified incubator with 5% CO2 in air at 37 °C. Cell passage was maintained between 10 and 16 for MRC-5 and between 79 and 82 for Hep G2 cells. The medium was changed every 2 days. Culture media, antibiotics, and FBS were obtained from Invitrogen Corp. Human gastric adenocarcinoma cells AGS (ATCC CRL-1739) were grown as monolayers in Ham F-12 medium containing 1.0 mM L-glutamine and 1.5 g/L sodium bicarbonate, supplemented with 10% heat-inactivated FBS, 100 IU/mL penicillin, and 100 µg/mL streptomycin in a humidified incubator with 5% CO2 in air at 37 °C. Cell passage was maintained between 42 and 48. The medium was changed every 2 days.
(§3) Confluent cultures of the different cell lines were treated with medium containing the compounds at concentrations ranging from 1 up to 1,000 µM. The antisecretory drug lansoprazole was used as reference compound. The substances were first dissolved in DMSO and then in the corresponding culture medium supplemented with 2% FBS. The final concentration of DMSO in the test medium and controls was 1%. The cells were exposed for 24 h to test medium with or without the compound (control). Each concentration was tested in quadruplicate together with the control and repeated three times in separate experiments. At the end of the incubation the neutral red uptake assay was performed.

[3] = test system: MRC-5 fibroblasts; assay: Basal cytotoxicity, neutral red uptake assay, MRC-5; type: cell-based; details: Homo sapiens, MRC5, MRC-5, confluent cultures, 24 h, read-out: IC50 ± SEM, Fibroblasts
Experimental: as §1, §2, §3

[4] = test system: Hep G2 cells; assay: Basal cytotoxicity, neutral red uptake assay, Hep G2; type: cell-based; details: Homo sapiens, HepG2, Hep G2, confluent cultures, 24 h, read-out: IC50 ± SEM, Hep G2
Experimental: as §1, §2, §3

[5] = Basal cytotoxicity, cell lines not separated in the text; type: cell-based; details: human; stated in text without cell line
Experimental: as §1
The human cell lines MRC-5 normal lung fibroblasts (ATCC CCL-171), AGS gastric adenocarcinoma cells (ATCC CRL-1739), and Hep G2 hepatocellular carcinoma cells (ATCC HB-8065) were obtained from the American Type Culture Collection (ATCC, Manassas, VA, USA). The cells were grown as monolayers in the following media: MRC-5 and Hep G2 in minimum essential Eagle’s medium (MEM), with Earle’s salts, 2.0 mM L-glutamine (Sigma Chemical Co.) and 2.2 g/L sodium bicarbonate (Sigma Chemical Co.), supplemented with 10% heat-inactivated fetal bovine serum (FBS), 100 IU/mL penicillin, and 100 µg/mL streptomycin in a humidified incubator with 5% CO2 in air at 37 °C. Cell passage was maintained between 10 and 16 for MRC-5 and between 79 and 82 for Hep G2 cells. The medium was changed every 2 days. Culture media, antibiotics, and FBS were obtained from Invitrogen Corp. Human gastric adenocarcinoma cells AGS (ATCC CRL-1739) were grown as monolayers in Ham F-12 medium containing 1.0 mM L-glutamine and 1.5 g/L sodium bicarbonate, supplemented with 10% heat-inactivated FBS, 100 IU/mL penicillin, and 100 µg/mL streptomycin in a humidified incubator with 5% CO2 in air at 37 °C. Cell passage was maintained between 42 and 48. The medium was changed every 2 days. […]

[6] = Mus musculus, 1 h, mice, single oral dose of 5 mg/kg, read-out: Protected stomachs (number of stomachs completely protected from any visible bleeding) (converted)
[7] = Mus musculus, 1 h, mice, single oral dose of 5 mg/kg, read-out: Protection (%)
[8] = mice, single oral dose of 5 mg/kg

Structure (SMILES) | responders at 5 mg/kg [1, 6] [%] | inhibition in vivo at 5 mg/kg [1, 7] [%] | Lesion index (mm) Mean ± SEM [1, 8] [mm] | IC50 [2] [µM] | IC50 [3] [µM] | IC50 [4] [µM] | Gastroprotective effect compared with the vehicle control (Tween 80) ([1]; mice, 5, 10 and 50 mg/kg, data not shown) | IC50 at 24 h [5] [µM] | responders at 20 mg/kg ([1]; Mus musculus, 1 h, mice, oral, 20 mg/kg, read-out: Protected stomachs (number of stomachs completely protected from any visible bleeding) (converted)) [%] | inhibition in vivo at 20 mg/kg ([1]; Mus musculus, 1 h, mice, oral, 20 mg/kg, read-out: Protection (%)) [%] | Lesion index (mm) Mean ± SEM ([1]; mice, oral, 20 mg/kg) [mm]
C=C1CCC2[C@](C)(CCC[C@]2(C)C(=O)O)[C@H]1CC[C@@H](C)CC(=O)OC1=C(CCC(C)C)C(=O)C2=C(CCCC2)C1=O (stereo partly shown) [Compound 5, Dihydroprenyl-5,6,7,8-tetrahydrolapachoyl junicedrate] | 0 | 18 | 20.4 ± 3.6 | 40 ± 6 | 69 ± 3 | 27 ± 1 |  |  |  |  | 
C=C1CCC2[C@](C)(CCC[C@]2(C)C(=O)O)[C@H]1CC[C@@H](C)CC(=O)O (stereo partly shown) [Junicedric acid (I), junicedric acid, reference compound] |  |  |  | 304 ± 18 | 181 ± 9 | > 1000 |  |  |  |  | 
C=C1CCC2[C@](C)(CCC[C@]2(C)C(=O)O)[C@H]1CC[C@@H](C)CC(=O)OC1=C(CC=C(C)C)C(=O)c2ccccc2C1=O (stereo partly shown) [Compound 1, Lapachoyl junicedrate] |  | 44 | 15.3 ± 5.0 | 170 ± 9 | 210 ± 13 | 57.4 ± 4.4 |  |  |  |  | 
C=C1CCC2[C@](C)(CCC[C@]2(C)C(=O)OC)[C@H]1CC[C@@H](C)CC(=O)OC1=C(CC=C(C)C)C(=O)c2ccccc2C1=O (stereo partly shown) [Compound 2, Lapachoyl junicedrate methyl ester] | 44.4 | 65 | 8.7 ± 3.9 | 361 ± 19 | 741 ± 40 | 208 ± 11 |  |  |  |  | 
COc1cc([C@@H]2c3cc4c(cc3[C@@H](O[C@@H]3O[C@@H]5CO[C@@H](C)O[C@H]5[C@H](O)[C@H]3O)[C@H]3COC(=O)[C@H]23)OCO4)cc(OC)c1O [Etoposide, reference compound] |  |  |  | 0.58 ± 0.02 |  |  |  |  |  |  | 
CC1=C(CC[C@@H](C)CC(=O)OC2=C(CCC(C)C)C(=O)c3ccccc3C2=O)[C@@]2(C)CCC[C@](C)(C(=O)O)C2CC1 (stereo partly shown) [Compound 9, Dihydroprenyl lapachoyl Δ8(9) junicedrate] | 0 | 64 | 15.7 ± 4.5 | 294 ± 15 | 341 ± 17 | > 1000 |  |  |  |  | 
CC(C)=CCC1=C(OC(=O)C[C@H](C)CCC2=C(C)CCC3[C@@](C)(C(=O)O)CCC[C@]23C)C(=O)c2ccccc2C1=O (stereo partly shown) [Compound 7, Lapachoyl Δ8(9) junicedrate] | 12.5 | 54 | 11.5 ± 4.4 | 179 ± 9 | 190 ± 8 | 96 ± 9 |  |  |  |  | 
CC(C)=CCC1=C(O)C(=O)c2ccccc2C1=O [Lapachol (IV), 2-hydroxy-3-(3-methyl-2-butenyl)-[1,4]-naphthoquinone, reference compound] |  |  |  | 382 ± 15 | > 1000 | 55 ± 3 | did not present a statistically significant effect |  |  |  | 
COC(=O)[C@@]1(C)CCC[C@]2(C)C(CC[C@@H](C)CC(=O)OC3=C(CCC(C)C)C(=O)c4ccccc4C3=O)=C(C)CCC12 (stereo partly shown) [Compound 10, Dihydroprenyl lapachoyl Δ8(9) junicedrate methyl ester] | 33.3 | 76 | 10.2 ± 3.5 | 162 ± 10 | > 1000 | > 1000 |  |  |  |  | 
C=C1CCC2[C@](C)(CCC[C@]2(C)C(=O)O)[C@H]1CC[C@@H](C)CC(=O)OC1=C(CCC(C)C)C(=O)c2ccccc2C1=O (stereo partly shown) [Compound 3, Dihydroprenyl lapachoyl junicedrate] | 0 | 59 | 17.9 ± 4.6 | 89 ± 5 | 156 ± 9 | > 1000 |  |  |  |  | 
C=C1CCC2[C@](C)(CCC[C@]2(C)C(=O)OC)[C@H]1CC[C@@H](C)CC(=O)OC1=C(CCC(C)C)C(=O)C2=C(CCCC2)C1=O (stereo partly shown) [Compound 6, Dihydroprenyl-5,6,7,8-tetrahydrolapachoyl junicedrate methyl ester] | 37.5 | 74 | 6.5 ± 2.7 | > 1000 | > 1000 | > 1000 |  | > 1000 |  |  | 
C=C1CCC2[C@](C)(CCC[C@]2(C)C(=O)OC)[C@H]1CC[C@@H](C)CC(=O)OC1=C(CCC(C)C)C(=O)c2ccccc2C1=O (stereo partly shown) [Compound 4, Dihydroprenyl lapachoyl junicedrate methyl ester] | 0 | 55 | 19.3 ± 5.0 | 382 ± 26 | > 1000 | > 1000 |  |  |  |  | 
CC1=C(CC[C@@H](C)CC(=O)O)[C@@]2(C)CCC[C@](C)(C(=O)O)C2CC1 (stereo partly shown) [Δ8(9) junicedric acid (II), Δ8(9) Junicedric acid, reference compound] | 44.4 | 79 | 5.3 ± 2.4 | 343 ± 22 | 214 ± 32 | > 1000 |  |  |  |  | 
Cc1c(OCC(F)(F)F)ccnc1C[S+]([O-])c1nc2ccccc2[nH]1 (stereo not shown) [Lansoprazole, lansoprazole, reference compound] |  |  |  | 162 ± 6 | 306 ± 11 | 221 ± 9 |  |  | 66.7 | 73 | 9.4 ± 1.2
CC(C)=CCC1=C(OC(=O)C[C@H](C)CCC2[C@@H](C)CCC3[C@]2(C)CCC[C@]3(C)C(=O)O)C(=O)c2ccccc2C1=O (stereo partly drawn) [Compound 11, Lapachoyl 17β-dihydrojunicedrate] | 0 | 6 | 23.5 ± 3.6 | 114 ± 7 | 336 ± 15 | 54.5 ± 5 |  |  |  |  | 
COC(=O)[C@@]1(C)CCC[C@]2(C)C(CC[C@@H](C)CC(=O)OC3=C(CC=C(C)C)C(=O)c4ccccc4C3=O)=C(C)CCC12 (stereo partly shown) [Compound 8, Lapachoyl Δ8(9) junicedrate methyl ester] | 55.6 | 84 | 3.9 ± 1.9 | 721 ± 35 | > 1000 | 379 ± 21 |  |  |  |  | 
COC(=O)[C@@]1(C)CCC[C@]2(C)C(CC[C@@H](C)CC(=O)OC3=C(CC=C(C)C)C(=O)c4ccccc4C3=O)[C@@H](C)CCC21 (stereo partly drawn) [Compound 12, Lapachoyl 17β-dihydrojunicedrate methyl ester] | 0 |  | 27.4 ± 6.8 | 323 ± 16 | 926 ± 35 | 290 ± 9 |  |  |  |  | 
